Calls of active or inactive are those of the source. No cut-off for these calls is given here.
Key:
[1] = molecular target: T1, Amyloid-beta precursor protein (Homo sapiens, UniProt P05067); assay: Binding affinity to CM-5 sensor chip immobilized beta-amyloid monomer (1 to 42) (unknown origin) at 200 uM by SPR analysis
[2] = molecular target: T2, Histamine H3 receptor (Homo sapiens, UniProt Q9Y5N1); assay: Displacement of [3H]Nalpha-methylhistamine from recombinant human histamine H3 receptor expressed in HEK293 cells incubated for 90 mins by competition binding assay; assay type: cell-based
[3] = molecular target: T1, Amyloid-beta precursor protein; assay: Binding affinity to CM-5 sensor chip immobilized beta-amyloid monomer (1 to 42) (unknown origin) assessed as dissociation constant by SPR analysis
[4] = molecular target: T2, Histamine H3 receptor; assay: Antagonist activity at histamine H3 receptor (unknown origin)

T1 sequence (P05067 whole entry): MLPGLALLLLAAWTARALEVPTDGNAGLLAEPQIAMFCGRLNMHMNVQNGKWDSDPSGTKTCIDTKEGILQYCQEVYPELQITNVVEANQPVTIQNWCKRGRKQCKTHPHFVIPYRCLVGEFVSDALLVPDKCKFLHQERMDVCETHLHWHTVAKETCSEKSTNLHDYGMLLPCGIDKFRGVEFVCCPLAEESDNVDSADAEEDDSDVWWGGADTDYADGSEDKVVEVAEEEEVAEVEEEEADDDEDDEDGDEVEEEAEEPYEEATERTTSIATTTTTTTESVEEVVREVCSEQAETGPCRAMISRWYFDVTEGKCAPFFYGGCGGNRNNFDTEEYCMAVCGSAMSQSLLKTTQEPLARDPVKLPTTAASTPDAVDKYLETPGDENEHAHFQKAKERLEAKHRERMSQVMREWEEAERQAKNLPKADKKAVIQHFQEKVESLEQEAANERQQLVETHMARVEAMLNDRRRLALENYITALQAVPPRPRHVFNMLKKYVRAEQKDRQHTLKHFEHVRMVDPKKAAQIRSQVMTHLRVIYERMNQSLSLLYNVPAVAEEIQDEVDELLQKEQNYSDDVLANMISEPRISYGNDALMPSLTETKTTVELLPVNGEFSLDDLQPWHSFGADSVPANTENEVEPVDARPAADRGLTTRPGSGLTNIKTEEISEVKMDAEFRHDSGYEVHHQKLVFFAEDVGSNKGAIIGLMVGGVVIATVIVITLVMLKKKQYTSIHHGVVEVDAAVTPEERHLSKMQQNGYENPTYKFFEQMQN
T2 sequence (Q9Y5N1 whole entry): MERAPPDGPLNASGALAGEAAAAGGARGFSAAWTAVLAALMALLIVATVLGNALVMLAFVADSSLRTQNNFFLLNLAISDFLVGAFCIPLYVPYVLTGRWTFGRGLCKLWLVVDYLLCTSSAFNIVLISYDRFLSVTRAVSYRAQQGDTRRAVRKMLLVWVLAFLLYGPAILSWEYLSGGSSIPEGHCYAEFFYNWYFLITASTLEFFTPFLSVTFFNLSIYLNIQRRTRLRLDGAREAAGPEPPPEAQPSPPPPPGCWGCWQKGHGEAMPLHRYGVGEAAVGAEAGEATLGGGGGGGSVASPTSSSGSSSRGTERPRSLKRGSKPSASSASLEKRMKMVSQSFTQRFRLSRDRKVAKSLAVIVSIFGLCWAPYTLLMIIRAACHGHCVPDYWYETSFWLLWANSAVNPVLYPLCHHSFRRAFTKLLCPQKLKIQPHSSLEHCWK

Compound | Activity [1] | Ki [2] | Kd [3] | Ki [4]
O=C1CNC(=O)[C@H](Cc2ccc(OCCCN3CCCCC3)cc2)N1 | inactive | 0.074 µM | – | –
O=C1CN(Cc2ccc(OCCCN3CCCCC3)cc2)C(=O)CN1 | – | 0.0049 µM | 1550 µM | –
c1ccc(C[C@H]2CN[C@@H](Cc3ccc(OCCCN4CCCCC4)cc3)CN2)cc1 | inactive | 0.0011 µM | – | –
O=c1[nH]/c(=C\c2ccc(OCCCN3CCCCC3)cc2)c(=O)[nH]/c1=C\c1ccccc1 | inactive | 0.0038 µM | – | –
O=C1N[C@@H](Cc2ccc(OCCCN3CCCCC3)cc2)C(=O)N[C@H]1Cc1ccccc1 | inactive | 0.039 µM | 12000 µM | –
O=C1CNC(=O)/C(=C/c2ccc(OCCCN3CCCCC3)cc2)N1 | inactive | 0.0223 µM | – | –
O=C1CNC(=O)[C@@H](Cc2ccc(OCCCN3CCCCC3)cc2)N1 | inactive | 0.158 µM | – | –
O=C1CN(C(=O)c2ccc(OCCCN3CCCCC3)cc2)CCN1 | – | 0.0028 µM | – | –

Next, values leading:

Activity [1] | Ki [2] | Kd [3] | Ki [4] | Compound
– | – | – | 0.002 µM | CN1C[C@H]2CCN(c3ccc(-c4ccc(-n5ncccc5=O)cc4)cc3)[C@H]2C1
inactive | 0.002 µM | – | – | c1cc(OCCCN2CCCCC2)ccc1C[C@H]1CNCCN1
inactive | 0.0044 µM | – | – | CC(=O)N1C(=O)/C(=C/c2ccc(OCCCN3CCCCC3)cc2)NC(=O)[C@@H]1Cc1ccccc1
inactive | 0.219 µM | – | – | CC(C)[C@@H]1NC(=O)[C@H](Cc2ccc(OCCCN3CCCCC3)cc2)NC1=O
inactive | 0.159 µM | – | – | C[C@@H]1NC(=O)[C@H](Cc2ccc(OCCCN3CCCCC3)cc2)NC1=O
inactive | 0.002 µM | – | – | O=C1N[C@@H](Cc2ccccc2)C(=O)N/C1=C\c1ccc(OCCCN2CCCCC2)cc1 (stereo in doubt)
inactive | 0.0038 µM | – | – | CC(=O)N1CC(=O)N/C(=C\c2ccc(OCCCN3CCCCC3)cc2)C1=O
– | 0.0049 µM | – | – | O=C1CN(C(=O)c2ccc(OCCCN3CCCCC3)cc2)CCN1Cc1ccccc1
– | 0.0113 µM | 51.6 µM | – | O=C1CN(Cc2ccc(OCCCN3CCCCC3)cc2)CCN1Cc1ccccc1

— ChEMBL document CHEMBL5055663, “Histamine H3 receptor antagonists with peptidomimetic (keto)piperazine structures to inhibit Aβ oligomerisation” (Bioorg Med Chem, 2021)
